Here are results for one compound from patent publication US10548942B2, “CXCR antagonistic peptides and uses thereof” (STC.UNM, priority 2013, dated 2020).

“Also recorded” adds a separate entry of the source.

Experiment [1] deals with T1, CXCR2 receptor (Rattus norvegicus, UniProt P35407).
T1 construct: endogenous in cells; host or cells: primary cortical neurons from Sprague-Dawley rat embryos (E18)
T1 sequence (P35407 1-359): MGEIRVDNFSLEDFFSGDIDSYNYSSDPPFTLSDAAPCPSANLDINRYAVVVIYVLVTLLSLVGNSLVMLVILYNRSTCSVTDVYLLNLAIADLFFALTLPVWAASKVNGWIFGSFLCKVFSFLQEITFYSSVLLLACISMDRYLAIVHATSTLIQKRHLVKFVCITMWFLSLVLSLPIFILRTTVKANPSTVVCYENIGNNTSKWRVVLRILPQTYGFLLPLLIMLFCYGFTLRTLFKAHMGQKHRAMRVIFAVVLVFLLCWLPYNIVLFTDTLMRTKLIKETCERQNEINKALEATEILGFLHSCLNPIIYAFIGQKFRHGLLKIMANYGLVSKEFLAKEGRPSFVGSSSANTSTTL
The experiment in a line: ac-PGP-induced apoptosis in primary cortical neurons, TUNEL stain. Type of experiment: cell-based. The procedure:
First, the mechanism by which ac-PGP induces apoptosis in cortical neurons was investigated. Because ac-PGP is reported to engage neutrophil CXCR2 receptors, whether an established CXCR2 receptor antagonist, SB225002, could influence ac-PGP neurotoxicity was tested.
Cortical neurons were obtained from Sprague-Dawley rat embryos at day 18 of gestation. Cortices were triturated digested with 0.025% trypsin in phosphate buffer saline (PBS) for 10 minutes. Digestion was stopped by the addition of Dulbecco's Modified Eagle Medium (DMEM) containing 10% fetal bovine serum (FBS). Trypsinized cells were filtered using […] disposable cell filters (Becton-Dickinson), washed twice with Neurobasal medium (Gibco) containing 4% FBS, and preplated 4 times for 30 minutes in 150 mm vacuum-plasma treated dishes (Becton-Dickinson). During these preplating steps, primarily non-neuronal cells adhere to the dish, thereby enriching the neuronal population. […] At 7 DIV, cortical cultures were 98% neurons as assessed by microtubule-associated protein 2 (MAP2) antibody labeling and flow cytometry analysis (data not shown). […]
Cortical neurons were obtained from Sprague-Dawley rat embryos at day 18 of gestation. […] At 7 DIV, cortical cultures were 98% neurons as assessed by microtubule-associated protein 2 (MAP2) antibody labeling and flow cytometry analysis (data not shown).

Experiment [2] concerns cortical neurons. The experiment is described as follows: oxygen-glucose deprivation (OGD) model of stroke in primary neurons. The experiment is classed as cell-based, rat. As to conditions: for protection from OGD: treatment at reoxygenation or 5, 15, 30, or 60 minutes after reoxygenation, vs vehicle. The procedure: Cortical neurons were obtained from Sprague-Dawley rat embryos at day 18 of gestation. Cortices were triturated digested with 0.025% trypsin in phosphate buffer saline (PBS) for 10 minutes. Digestion was stopped by the addition of Dulbecco's Modified Eagle Medium (DMEM) containing 10% fetal bovine serum (FBS). Trypsinized cells were filtered using […] disposable cell filters (Becton-Dickinson), washed twice with Neurobasal medium (Gibco) containing 4% FBS, and preplated 4 times for 30 minutes in 150 mm vacuum-plasma treated dishes (Becton-Dickinson). During these preplating steps, primarily non-neuronal cells adhere to the dish, thereby enriching the neuronal population. Enriched neurons were plated at a density of 50×10^3/cm2 in Neurobasal medium containing 4% FBS, 25 μM Glutamax (Gibco), and penicillin-streptomycin (Gibco) in while clear-bottomed 96-well plates (353377) or 24-well plates (353226) (Becton-Dickinson) coaled overnight with 50 μg/ml poly-D-lysine. At plating, spaces between wells in 96-well plates were filled with 50 μl sterile water to minimize evaporation of medium at the edges of the dish. Twenty-four hours later (1 day in vitro, 1 DIV), 50% of the medium was replaced with Neurobasal medium, 2% B27 (Gibco), and 4 μM cytosine arabinoside (AraC) (2 μM AraC final). At 5 DIV, 50% of the medium was replaced with Neurobasal, 2% B27. At 7 DIV, cortical cultures were 98% neurons as assessed by microtubule-associated protein 2 (MAP2) antibody labeling and flow cytometry analysis (data not shown).
Cortical neurons were deprived of oxygen and glucose by incubation in deoxygenated glucose-free Hank's buffered saline solution (HBSS). HBSS was prepared as follows: sodium chloride, NaCl, 8.0 g/L, potassium chloride, KCl, 0.4 g/L, potassium phosphate monobasic, KH2PO4, 0.06 g/L, sodium phosphate dibasic, Na2HPO4, 0.048 g/L, magnesium sulfate. MgSO4, 0.098 g/L, calcium chloride, CaCl2, 0.14 g/L, sodium bicarbonate, NaHCO3, 0.35 g/L, D-glucose, C6H12O6, 1.0 g/L. Solutions were adjusted to pH 7.4 and sterilized by vacuum filtration through 0.2 μm polyether sulfone (PES) membranes. Glucose-free HBSS was prepared by omitting glucose and adding an additional half molar amount of NaCl to adjust osmolarity (8.162 g/L NaCl). Glucose-free HBSS was deoxygenated in a gas washing bottle with 95% nitrogen, 5% CO2 for 20 minutes at a flow rate of 3 L/min in a 37° C. water bath. Culture dishes were washed twice with deoxygenated glucose-free HBSS and incubated for 2 hours in glucose-free deoxygenated HBSS (OGD). Normoxic control cells were handled identically but were incubated in a 5% CO2 incubator with normal HBSS pre-equilibrated in a 5% CO2 atmosphere overnight. […]

For `O=C(Nc1ccc([N+](=O)[O-])cc1O)Nc1ccccc1Br` [SB225002], in experiment [1] (1 nM vs 0.01 and 0.1 nM), the “ac-PGP-induced apoptosis (TUNEL stain), dose comparison” value is given as “significantly less apoptotic”. Moreover, in experiment [1] (pretreatment of primary cortical neurons before ac-PGP exposure, all doses, vs ac-PGP alone), the “ac-PGP-induced apoptosis (TUNEL stain)” value is on record as “significantly less apoptotic; also recorded: blocked ac-PGP neurotoxicity”. The “neuronal protection compared to administration at reoxygenation” value in experiment [2] (administered at 15 minutes post-reoxygenation) was “significantly decreased; also recorded: significantly declined”. In experiment [2] (pretreatment, 24-hour reoxygenation, vs vehicle-treated controls), the “apoptosis after 2-hour OGD” value was “significantly less apoptotic; also recorded: significant protection from OGD”. The “protection from OGD” value in experiment [2] is “significant protection”; in experiment [2] (listed as SB2225002), “provided neuroprotection”.
